Reference: patent US5767278A, “Telomerase inhibitors” (Geron Corporation, priority 1995, dated 1998)

How the values were obtained:
telomerase = molecular target: T1, telomerase (Homo sapiens, UniProt O14746); assay: Inhibition of telomerase activity (IC50); assay type: biochemical
T1 construct: placing cells, tissues, or preferably a cellular extract or other preparation containing telomerase in contact with; endogenous in cells
From the text: One method used to identify compounds of the invention that inhibit telomerase activity involves placing cells, tissues, or preferably a cellular extract or other preparation containing telomerase in contact with several known concentrations of a test compound in a buffer compatible with telomerase activity. […] Other methods for determining the inhibitory concentration of a compound of the invention against telomerase can be employed as will be apparent to those of skill in the art based on the disclosure herein.
With the above-described methods, IC50 values for several of the compounds of the present invention were determined. The values reported in Table 3 below are only approximate values; more exact IC50 values can be obtained by repetitive testing.

[1] = tested on: telomerase-positive cells; assay: Telomere length in telomerase-positive cells treated with Compound XIV (one uncontrolled experiment); assay type: cell-based; conditions: dosing period of about 48 hours
Method: Colonies of the tumor cell lines, such as the ovarian tumor cell lines OVCAR-5 and SK-OV-3, and normal human cells used as a control (e.g., normal human BJ cells) are prepared using standard methods and materials. In one test, the colonies are prepared by seeding 15-centimeter dishes with about 10^6 cells in each dish. The dishes are incubated to allow the cell colonies to grow to about 80% confluence, at which time each of the colonies are divided into two groups. One group is exposed to a subacute dose of a compound of the invention at a predetermined concentration (e.g., between about 5 μM and about 20 μM) for a period of about 4-8 hours after plating following the split; the other group is exposed to a control (e.g., DMSO).
Each group is then allowed to continue to divide, and the groups are split evenly again (near confluence). The same number of cells are seeded for continued growth. The compound or control is added every fourth day to the samples at the same concentration delivered initially. Remaining cells are analyzed for telomere length. As the untested cell cultures near confluence, the samples are split again as just described. […]
Telomere length is determined by digesting the DNA of the cells using restriction enzymes specific for sequences other than the repetitive T2 AG3 sequence of human telomeres. […]

[2] = Half-life of Compound XIV; assay type: in vitro ADME; conditions: additional data suggest; on the order of about
[3] = Table 3, only approximate values
[4] = approximate IC50 values, summary of the table

T1 sequence (O14746 whole entry): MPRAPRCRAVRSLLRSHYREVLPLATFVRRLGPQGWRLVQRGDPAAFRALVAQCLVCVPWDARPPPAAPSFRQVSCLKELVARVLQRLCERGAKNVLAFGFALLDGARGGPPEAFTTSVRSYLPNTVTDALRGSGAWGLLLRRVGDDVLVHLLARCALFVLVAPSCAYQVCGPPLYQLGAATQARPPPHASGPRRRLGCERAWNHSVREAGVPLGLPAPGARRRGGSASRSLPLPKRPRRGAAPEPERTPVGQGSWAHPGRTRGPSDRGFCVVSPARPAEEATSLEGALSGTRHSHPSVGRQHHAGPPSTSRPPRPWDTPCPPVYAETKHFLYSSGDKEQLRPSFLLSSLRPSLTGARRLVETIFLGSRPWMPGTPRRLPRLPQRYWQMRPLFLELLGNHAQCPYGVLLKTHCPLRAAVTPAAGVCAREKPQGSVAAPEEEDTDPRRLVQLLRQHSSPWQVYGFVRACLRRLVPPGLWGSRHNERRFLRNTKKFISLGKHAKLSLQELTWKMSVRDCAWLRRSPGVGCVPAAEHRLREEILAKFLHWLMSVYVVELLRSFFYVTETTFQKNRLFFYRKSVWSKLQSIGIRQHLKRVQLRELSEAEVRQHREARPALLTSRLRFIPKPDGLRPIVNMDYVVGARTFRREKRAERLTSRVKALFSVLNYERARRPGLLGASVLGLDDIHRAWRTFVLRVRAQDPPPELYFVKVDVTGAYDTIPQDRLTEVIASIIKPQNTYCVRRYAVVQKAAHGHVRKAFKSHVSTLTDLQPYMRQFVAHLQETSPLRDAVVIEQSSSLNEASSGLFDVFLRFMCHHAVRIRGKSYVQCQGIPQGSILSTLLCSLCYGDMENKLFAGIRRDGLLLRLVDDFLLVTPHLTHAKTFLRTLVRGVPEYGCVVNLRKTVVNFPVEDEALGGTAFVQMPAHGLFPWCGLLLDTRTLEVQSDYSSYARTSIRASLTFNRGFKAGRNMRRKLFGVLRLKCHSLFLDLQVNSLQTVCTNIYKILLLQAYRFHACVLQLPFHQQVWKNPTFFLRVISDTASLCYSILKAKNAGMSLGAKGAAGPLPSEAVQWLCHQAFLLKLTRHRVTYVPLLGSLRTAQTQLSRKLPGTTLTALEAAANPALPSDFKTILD
T1 sequence (O60832 whole entry partner): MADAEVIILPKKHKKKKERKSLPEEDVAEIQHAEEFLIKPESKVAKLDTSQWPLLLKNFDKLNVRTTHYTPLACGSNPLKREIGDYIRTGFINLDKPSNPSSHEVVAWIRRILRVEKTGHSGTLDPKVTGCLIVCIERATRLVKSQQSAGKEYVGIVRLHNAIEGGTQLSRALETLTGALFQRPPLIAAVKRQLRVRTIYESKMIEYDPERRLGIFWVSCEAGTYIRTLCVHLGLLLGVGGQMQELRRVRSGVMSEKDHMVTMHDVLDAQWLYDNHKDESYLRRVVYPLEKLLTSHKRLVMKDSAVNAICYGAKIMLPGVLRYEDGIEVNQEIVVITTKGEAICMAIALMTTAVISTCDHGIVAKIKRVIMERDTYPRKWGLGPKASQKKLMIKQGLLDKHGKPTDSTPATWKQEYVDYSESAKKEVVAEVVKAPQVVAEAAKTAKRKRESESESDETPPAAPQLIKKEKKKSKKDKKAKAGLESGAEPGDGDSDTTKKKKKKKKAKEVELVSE
T1 sequence (Q9NPE3 whole entry partner): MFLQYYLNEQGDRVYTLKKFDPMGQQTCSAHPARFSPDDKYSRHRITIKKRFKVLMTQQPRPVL
T1 sequence (Q9NX24 whole entry partner): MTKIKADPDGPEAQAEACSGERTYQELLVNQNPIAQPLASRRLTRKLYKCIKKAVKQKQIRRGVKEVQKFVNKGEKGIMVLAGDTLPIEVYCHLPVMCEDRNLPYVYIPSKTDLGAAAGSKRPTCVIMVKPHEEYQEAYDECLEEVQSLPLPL
T1 sequence (Q9NY12 whole entry partner): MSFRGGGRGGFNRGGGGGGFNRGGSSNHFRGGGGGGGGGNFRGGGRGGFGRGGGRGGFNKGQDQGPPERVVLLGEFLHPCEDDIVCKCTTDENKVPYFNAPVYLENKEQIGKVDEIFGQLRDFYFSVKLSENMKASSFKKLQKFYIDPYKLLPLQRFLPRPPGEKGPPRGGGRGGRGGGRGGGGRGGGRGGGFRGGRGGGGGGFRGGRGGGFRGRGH

COc1ccc(N=Cc2ccc(C#N)c(SCc3ccc(Cl)s3)n2)nc1 [Compound LIII]
IC50 (telomerase; [3]): 5 µM
IC50 (telomerase; [4]): < 5 µM

N#Cc1ccc(C=Nc2ccc(Br)cn2)nc1SCc1ccc(Cl)s1 [Compound LII]
IC50 (telomerase; [3]): < 3.2 µM
IC50 (telomerase; [4]): < 5 µM

Cc1ccc(NN=Cc2ccc(C#N)c(SCc3ccc(Cl)c(Cl)c3)n2)cc1 [Compound LIV]
IC50 (telomerase; [3]): 17 µM

N#Cc1ccc(C=NNC(=S)Nc2ccc(F)cc2)nc1SCc1ccc(Cl)c(Cl)c1 [Compound LVII]
IC50 (telomerase; [3]): 18 µM

Cc1ccc(NC(=S)NN=Cc2ccc(C#N)c(SCc3ccc(Cl)c(Cl)c3)n2)cc1 [Compound LVI]
IC50 (telomerase; [3]): 18 µM

N#Cc1ccc(C=NNc2ccc(Cl)cc2)nc1SCc1ccc(Cl)c(Cl)c1 [Compound LV]
IC50 (telomerase; [3]): 19.2 µM

Cc1cccnc1N=Cc1ccc(C#N)c(SCc2ccc(Cl)c(Cl)c2)n1 [Compound XIV]
IC50 (telomerase; [3]): < 3.2 µM
IC50 (telomerase; [4]): < 5 µM
shorting of telomere length [1]: No significant shorting of telomere length was observed
half-life [2]: ~12 h

Cc1cccnc1N=Cc1ccc(C#N)c(SCc2ccccc2C(F)(F)F)n1 [Compound XIX]
IC50 (telomerase; [3]): 3 µM

Cc1cccnc1N=Cc1ccc(C#N)c(SCc2ccc3c(c2)C(C)(C)CCC3(C)C)n1 [Compound XLIII]
IC50 (telomerase; [3]): < 3.2 µM
IC50 (telomerase; [4]): < 5 µM

Cc1cccnc1N=Cc1ccc(C#N)c(SCc2csc3ccc(Cl)cc23)n1 [Compound XLVII]
IC50 (telomerase; [3]): < 3.2 µM
IC50 (telomerase; [4]): < 5 µM

Cc1cccnc1N=Cc1ccc(C#N)c(SCc2ccccc2-c2ccccc2)n1 [Compound XVIII]
IC50 (telomerase; [3]): 2 µM

Cc1cccnc1N=Cc1ccc(C#N)c(SCc2cc(C(F)(F)F)cc(C(F)(F)F)c2)n1 [Compound XVII]
IC50 (telomerase; [3]): 2 µM

Cc1cccnc1N=Cc1ccc(C#N)c(SCc2c(Cl)cccc2Cl)n1 [Compound XVI]
IC50 (telomerase; [3]): 1 µM

Cc1ccnc(N=Cc2ccc(C#N)c(SCc3ccc(Cl)c(Cl)c3)n2)c1 [Compound XV]
IC50 (telomerase; [3]): 8 µM

Cc1cccnc1N=Cc1ccc(C#N)c(SCc2ccccc2Br)n1 [Compound XXIII]
IC50 (telomerase; [3]): 2 µM

Cc1cccnc1N=Cc1ccc(C#N)c(SCc2ccc(-c3ccccc3)cc2)n1 [Compound XXII]
IC50 (telomerase; [3]): 2 µM

Cc1ccccc1CSc1nc(C=Nc2ncccc2C)ccc1C#N [Compound XXIV]
IC50 (telomerase; [3]): 3 µM

Cc1cc(C)cc(CSc2nc(C=Nc3ncccc3C)ccc2C#N)c1 [Compound XXIX]
IC50 (telomerase; [3]): 2 µM

Cc1cccnc1N=Cc1ccc(C#N)c(SCc2ccc(C(C)C)cc2)n1 [Compound XXI]
IC50 (telomerase; [3]): 2 µM

Cc1cccnc1N=Cc1ccc(C#N)c(SCc2ccc(C(F)(F)F)cc2C(F)(F)F)n1 [Compound XXVII]
IC50 (telomerase; [3]): 5 µM

Cc1ccc(C)c(CSc2nc(C=Nc3ncccc3C)ccc2C#N)c1 [Compound XXVI]
IC50 (telomerase; [3]): 0.9 µM

Cc1cccnc1N=Cc1ccc(C#N)c(SCc2cc(Cl)cc3c2OCOC3)n1 [Compound XXV]
IC50 (telomerase; [3]): 4 µM

Cc1cccnc1N=Cc1ccc(C#N)c(SCc2cc(Cl)cc(Cl)c2)n1 [Compound XXXII]
IC50 (telomerase; [3]): < 3.2 µM

Cc1ccc(CSc2nc(C=Nc3ncccc3C)ccc2C#N)c(C)c1 [Compound XXXI]
IC50 (telomerase; [3]): < 3.2 µM

Cc1cccnc1N=Cc1ccc(C#N)c(SCc2cc(Cl)cc(Cl)c2)n1 [Compound XXXVII]
IC50 (telomerase; [4]): < 5 µM

Cc1cccnc1N=Cc1ccc(C#N)c(SCc2ccc(C(C)(C)C)cc2)n1 [Compound XXX]
IC50 (telomerase; [3]): 2 µM

Cc1cccnc1N=Cc1ccc(C#N)c(SCc2ccc(C=Cc3ccccc3)cc2)n1 [Compound XX]
IC50 (telomerase; [3]): 8 µM

CCN1C(=O)c2ccc(N=Cc3ccc(C#N)c(SCc4ccc(Cl)c(Cl)c4)n3)cc2C1=O [Compound X]
IC50 (telomerase; [3]): 9 µM

N#Cc1ccc(C=Nc2ccc(Cl)cc2)nc1SCc1ccc(Cl)c(Cl)c1 [III]
IC50 (telomerase; [3]): 6.5 µM

COc1ccc(N=Cc2ccc(C#N)c(SCc3ccc(Cl)c(Cl)c3)n2)cc1 [IV]
IC50 (telomerase; [3]): 4.9 µM
IC50 (telomerase; [4]): < 5 µM

N#Cc1ccc(C=Nc2ccc3c(c2)C(=O)N(Cc2ccccc2)C3=O)nc1SCc1ccc(Cl)c(Cl)c1 [IX]
IC50 (telomerase; [3]): 8 µM

Cc1cccnc1N=Cc1ccc(C#N)c(SCC#CCSc2nc(C=Nc3ncccc3C)ccc2C#N)n1 [LXI]
IC50 (telomerase; [3]): < 3.2 µM
IC50 (telomerase; [4]): < 5 µM

N#Cc1ccc(C=Nc2ccc3c(c2)OCCO3)nc1SCc1ccc(Cl)c(Cl)c1 [VIII]
IC50 (telomerase; [3]): 10 µM

N#Cc1ccc(C=Nc2ccc(Br)c(C(F)(F)F)c2)nc1SCc1ccc(Cl)c(Cl)c1 [VII]
IC50 (telomerase; [3]): 12 µM

N#Cc1ccc(C=Nc2ccc(F)c(F)c2)nc1SCc1ccc(Cl)c(Cl)c1 [VI]
IC50 (telomerase; [3]): 10 µM

N#Cc1ccc(N=Cc2ccc(C#N)c(SCc3ccc(Cl)c(Cl)c3)n2)cc1Cl [V]
IC50 (telomerase; [3]): 10 µM

Cc1ccc(N=Cc2ccc(C#N)c(SCc3ccc(Cl)c(Cl)c3)n2)nc1 [XIII]
IC50 (telomerase; [3]): 7 µM

Cc1nc(N=Cc2ccc(C#N)c(SCc3ccc(Cl)c(Cl)c3)n2)ccc1Br [XII]
IC50 (telomerase; [3]): 7 µM

Cc1cccnc1N=Cc1ccc(C#N)c(SCc2cccc(Cl)c2F)n1 [XXVIII]
IC50 (telomerase; [3]): 2 µM
